One data set has as its system osteoblasts (MC3T3-E1). As to the kind of experiment: Cell proliferation assay (MTT). It is filed as cell-based. Conditions: immobilized stainless steel; 1×10^4 cell/cm^2; 7 days; versus bare surface. As to the method: For cell proliferation assay, osteoblasts (MC3T3-E1) were cultured at a density of 1×10^4 cell/cm^2 for 7 days on RGD- or gelatin-immobilized stainless steel, titanium or polyurethane surfaces, followed by conducting an MTTassay. Each specimen is represented in the form of, for example, ST-RGD 0.17 which stands for the immobilization of RGD at a concentration of 0.17 μg/cm^2 on stainless steel.

A short description of data set [1]: Contact angle measurement on immobilized substrate surfaces. It is filed as physicochemical. Conditions: stainless steel or titanium; immobilization 30 min; tyramine with tyrosinase 0.4 KU/mL, dopamine without. As to the method:
For experiments, dopamine and tyramine/tyrosinase were immobilized onto metal surfaces. In this regard, 450 μL of phosphate saline buffer was added to a piece of stainless steel or titanium metal and mixed with 40 μL of dopamine or tyramine having a concentration of 100 μg/mL. In the case of tyramine, tyrosinase having a concentration of 0.4 KU/mL was added in an amount of 10 μL. For effective comparison, a reaction was performed for 30 min. After immobilization, the specimens were washed three to five times with distilled water. An analysis was made of the results using contact angles and amine distributions on the surface. For contact angle measurements, droplets of 1 μL were deposited on a specimen surface and the angle at which the droplet interface meets the surface was measured using a contact angle meter (GBX Inc., France) and image analysis software.
Contact angles were measured to examine the change in hydrophilicity of bioactive molecule-immobilized surface. Droplets of 1 μL were deposited on a specimen surface after which contact angles were measured using a contact anglemeter (GBX Inc., France) equipped with image analysis software.

gelatin-poly(ethylene glycol)-tyramine: in the data set on osteoblasts (MC3T3-E1), the proliferation of osteoblasts result is “improved the proliferation”.

In data set [1], `NCCc1ccc(O)cc1` [tyramine] registered a contact angle of 30 °.

Take `NCCc1ccc(O)c(O)c1` [dopa, dopamine]: the contact angle in data set [1] came out at 45 °.
